# Assay results from patent US20070274915A1, “Modulation Of Anergy And Methods For isolating Anergy-Modulating Compounds” (priority 2003, published 2007).
# Where a SMILES comes first, the peptide text is derived from it. The star is where a group is joined. Cbz = O=C(OCc1ccccc1)*
# Assays:
# D5 T cells = experiment: Ionomycin-induced anergy in D5 Th1 cells, immunoblot of signaling proteins and E3 ligases; format: cell-based, murine
# Description: (§1) The murine D5 (Ar-5) Th1 cell clone was grown as previously described (F. Macian et al., Cell 109, 719-31 (2002). CD4+ cells were isolated from spleen and lymph nodes of DO11.10 or 2B4 TCR-transgenic mice using positive selection with anti-CD4 magnetic beads (Dynal), and differentiated into Th1 cells for 2 weeks using standard protocols (id.). Anergy was induced by treating primary Th1 cells or the D5 Th1 clone (10^6 cells/ml) with 1 μM ionomycin for 16 hours, Cyclosporin A was included in some experiments at a concentration of 2 μM. The cells were then washed to remove the ionomycin and incubated at higher cell density (˜3×10^6 cells/ml) for 1-2 hours at 37 C. In the experiment of FIG. 14, a high-density incubation step was included. The extent of anergy induction was evaluated by intracellular cytokine staining or in standard proliferation assays (id.). Restimulation of D5 cells was done with 1 μg/ml anti-CD3 with or without 2.5 μg/ml anti-CD28 or with 20 nM PMA or 1 μM Ionomycin or both. HEK 293 cells were grown and transfected with Ca2+ phosphate using standard protocols.
# D5 cells were extracted at 10^6 cells/10 μl in RIPA buffer (20 mM Tris pH 7.5, 250 mM NaCl, 1 mM DTT, 10 mM MgCl2, 1% Nonidet P-40, 0.1% SDS, 0.5% sodium deoxycholate) supplemented with protease and phosphatase inhibitors (1 mM PMSF, 25 μg/ml aprotinin, 25 μg/ml leupeptin, 10 mM NaF, 8 mM β glycerophosphate, 0,1 mM sodium ortho vanadate). For assessing protein levels in cell extracts, 5-30 μl of RIPA extracts were separated on 9-12% SDS-polyacrylamide gels, and proteins were electrotransferred onto nitrocellulose membranes. For immunoprecipitations, 500-1000 μl of RIPA cell extracts were used. For coimmunoprecipitations from lysates of transfected HEK 293 cells, cells from one 10 cm dish were lysed in 50 mM Hepes pH 7.5, 100 mM NaCl, 1 mM EDTA, 0,5% NP-40 and 10% glycerol including phosphatase and protease inhibitors. Lysates were precleared with either protein A- or protein G-Sepharose, immunoprecipitations were performed for 4 hrs and the resulting precipitates were washed 3-4 times with the buffer used for cell extraction. Immunoblots were performed with antibody solutions in 5% milk and TBS (10 mM TrisCl (pH 8.0), 150 mM NaCl) and washes were done in TBS containing 0.05% Tween-20.
# D5 cells = experiment: Real-time RT-PCR of E3 ligase and PLC-γ1 mRNA levels in D5 cells; format: cell-based, murine; conditions: ionomycin-treated T cells
# Description: Total RNA was prepared from untreated or ionomycin-pretreated D5 cells using Ultraspec reagent (Biotecx). cDNAs were synthesized from 2 μg of total RNA as template, using a cDNA synthesis kit (Invitrogen). Quantitative real time-PCR was performed in an I-Cycler (BioRad) using a SYBR Green PCR kit (Applied Biosystems). The sequences of the primer pairs are as follows:
# Thermal cycling conditions were 95° C. for 5 min, then 40 cycles of 95° C., 65° C., and 72° C. for 30 sec each, terminating with a single cycle at 72° C. for 5 min. Signals were captured during the polymerization step (72° C.). A threshold was set in the linear part of the amplification curve, and the number of cycles needed to reach it was calculated for each gene. Melting curve analysis and agarose gel electrophoresis were performed to test the purity of the amplified bands. Normalization was performed by using L32 levels as an internal control for each sample. The ratio of mRNA levels in ionomycin-treated or ionomycin/CsA treated to untreated samples were determined.
# HEK 293 cells = experiment: PLC-γ1 ubiquitination in transfected HEK 293 cells; format: cell-based; conditions: 3 μM ionomycin for 30 min
# Description: FIG. 17C is a chart and a set of immunoblots illustrating that Itch induces mono-, di- and poly-ubiquitination of PLC-γ1. HEK 293 cells were transfected in duplicate with expression vectors coding for HA-tagged ubiquitin, AU.1-tagged PLC-γ1 and/or myc-tagged Itch as indicated, and one culture of each pair was stimulated with 3 μM ionomycin for 30 min before cell extraction. Cell extracts were immunoprecipitated with AU.1 antibodies and analyzed for ubiquitin-modified or total immunoprecipitated PLC-γ1 (upper two panels), or were directly analyzed for PLC-γ1 and Itch expression by immunoblotting (lower two panels).
# as §1, with “The extent of anergy induction was evaluated by intracellular cytokine staining or in standard proliferation assays (id.). Restimulation of D5 cells was done with 1 μg/ml anti-CD3 with or without 2.5 μg/ml anti-CD28 or with 20 nM PMA or 1 μM Ionomycin or both. HEK 293 cells were grown and transfected with Ca2+ phosphate using standard protocols.” left out
# [1] = tested on: Th1 cells from BALB/c mice; experiment: Pulse-chase of PKCθ in Th1 cells; format: cell-based; conditions: ionomycin 16 h, pulse-chase with plate-bound anti-CD3
# Description: FIG. 21 is a set of autoradiograms illustrating calcineurin-dependent degradation of PKCθ in anergic T cells. Th1 cells from BALB/c mice were left untreated or pretreated with ionomycin for 16 h, pulse-labeled for 2 h with ^35S cysteine/methionine, washed and stimulated with plate-bound anti-CD3 antibody during the indicated chase periods. PKCθ immunoprecipitates were analyzed by autoradiography.
# CD4 cells were isolated via dynal beads selection, cells were starved for 1 hr in cysteine/methionine free media and incubated for 2 hrs with 100 μCi/ml 35S-cysteine and -methionine. Cells were washed, resuspended in complete media and stimulated with 2 μg/ml anti-CD3 on crosslinking antibody coated plates. Cells were extracted in RIPA buffer and immunoprecipitations performed as described above. Immunoprecipitates were resolved on SDS-PAGE, that were treated with Enhance solution (NEN), dried and used for autoradiographs. Densitometric analysis was performed using IQ-Mac vs 1.2 software.
# [2] = tested on: TH1 cells from 5CC7 TCR-transgenic mice; experiment: Immune synapse formation by 5CC7 TCR-transgenic TH1 cells on lipid bilayers; format: cell-based; conditions: 5CC7 T cells pretreated with ionomycin for 16 h
# Description: (§2) Planar bilayers were prepared essentially as described in (Grakoui et al., Science 285, 221-7 (1999)), except that the MCC88-103 peptide was loaded on the GPI-IEk for 24 hours. Bilayers were prepared using Oregon green labeled GPI-IEk and Cy5 labeled GPI-ICAM-1 in parallel plate flow cells (Bioptechs). Control and ionomycin treated cells were injected into the flow cell at a density of 10^6 cells/ml. Areas of bilayers where cells were forming synapses were imaged using FITC and Cy5 optics on an Olympus IX-70 inverted microscope equipped with a amamtsu ORCA-ER digital camera and a Xenon-arc lamp as a light source for fluorescence microscopy. […] Bright field, interference reflection (IRM) and fluorescence images were collected and processed using the Metamorph software. The background from the fluorescence images was subtracted using the produce background correction image function which is based on median filtering to subtract background that is nonuniform. Percentage of cells adhering were analyzed by comparing bright field and IRM images.
# The formation of immune synapses was evaluated as described for the experiments shown in FIG. 19, with TH1 cells from wild-type or Cblb−/− 5CC7 TCR-transgenic mice and lipid bilayers displaying ICAM-1 and I-Ek pigeon cytochrome C (PCC) molecules. […] Below the image series is a histogram that quantifies the imaging results. […]
# AND T cell blasts = experiment: Stability of mature immunological synapses on lipid bilayers after phospholipase inhibitors; format: cell-based
# Description: as §2
# Experiments using phospholipase inhibitors were performed using AND T cell blasts (day 8). […] After 60 minutes, fields containing stable immunological synapses with central MHC clusters (green) and complete ICAM-1 rings (red) were imaged and the locations recorded using an automated stage and IPLab software. […]
smiles,measurement,setting,value
CC(C)C[C@@H](C=O)NC(=O)[C@H](CC(C)C)NC(=O)[C@H](CC(C)C)NC(=O)OCc1ccccc1 [MG132] (Cbz-Leu-Leu-Leu-aldehyde),PLC-γ1 degradation,"D5 T cells; ionomycin 16 h, then incubation with 10 μM MG132",did not prevent
same,accumulation of a modified (mono-ubiquitinated) form of PKCθ,"D5 T cells; only in anergized T cells, long exposure",increased the accumulation
C[C@H](CCC(=O)O)C[C@H](C)C[C@H](C)C(=O)/C=C(\O)[C@H](C)C[C@H](C)C/C=C/[C@@H](C)[C@@H](O)[C@@H](C)[C@@H](O)C[C@@H]1CC[C@@](C)([C@H]2CC[C@@](C)([C@@H](C)O)O2)O1 [ionomycin],PLC-γ1 mRNA levels,D5 cells,remained constant
same,"PLC-γ1, PKCθ and RasGAP protein levels","D5 T cells; D5 T cells, ionomycin pretreatment followed by cell-cell contact, immunoblot",pronounced decrease
same,increase in total protein ubiquitination,"D5 T cells; ionomycin pretreatment, D5 T cells",~2 fold
same,Cbl-b protein induction,D5 T cells; ionomycin-treated D5 cells,even more highly induced
same,"Itch protein levels, increase",D5 T cells; ionomycin-treated D5 cells,~3 fold
same,Nedd4 protein levels,D5 T cells; ionomycin-treated D5 cells,no change
same,"Tsg101 protein levels, increase",D5 T cells; ionomycin-treated D5 cells,~3 fold
same,PLC-γ1 ubiquitination,HEK 293 cells,induced PLC-γ1 ubiquitination
same,PKCθ turnover versus mock-treated T cells,[1],significantly more rapidly
same,synapse stability,[2],synapse disorganization
same,time to form the mature synapse on contact with the bilayer,[2],< 5 min
COc1ccc2c(c1)CC[C@@H]1[C@@H]2CC[C@]2(C)[C@@H](NCCCCCCN3C(=O)C=CC3=O)CC[C@@H]12 [U73122],U73122 concentrations at which the effects were observed,AND T cell blasts; 3 independent experiments,0.1 to 1 µM
same,effect on established mature synapses,AND T cell blasts; added after mature synapses formed,disintegration of the outer LFA-1 ring
